IC50 data for 33 molecules are collected here from patent publication US11618746B2, “Inhibitors of APOL1 and methods of using same” (Vertex Pharmaceuticals Incorporated, priority 2018, dated 2023).

The term pIC50 denotes the IC50 on a negative log10 scale, so that one unit is a factor of ten. Low values mean a large IC50, high ones a small IC50.

SMILES strings stand for the structures. pIC50: −log10 of the molar value.

The test addresses T1, G1 APOL1 (Homo sapiens, UniProt O14791, I384M/S342G).
T1 construct: expressed in transfected cells
T1 sequence (O14791 28-398 S342G/I384M): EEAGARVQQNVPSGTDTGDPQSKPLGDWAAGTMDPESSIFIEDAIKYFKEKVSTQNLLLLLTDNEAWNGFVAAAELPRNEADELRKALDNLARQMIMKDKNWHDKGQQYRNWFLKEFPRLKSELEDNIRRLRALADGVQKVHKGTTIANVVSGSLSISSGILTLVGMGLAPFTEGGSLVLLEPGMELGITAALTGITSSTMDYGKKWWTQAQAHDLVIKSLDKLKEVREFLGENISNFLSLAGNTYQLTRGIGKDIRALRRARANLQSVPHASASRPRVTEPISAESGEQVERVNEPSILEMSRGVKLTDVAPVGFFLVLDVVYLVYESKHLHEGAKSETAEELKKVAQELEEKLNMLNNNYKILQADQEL
As to the kind of experiment: Acute APOL1 Thallium Assay with inducible stable clones of HEK 293 cells. The test is classed as cell-based. The note with it: HEK T-Rex tetracycline-inducible cells expressing G1 APOL1 (clone G1 DC3.25); inhibition of thallium flux rate. The method, boiled down: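 HEK293 T-Rex cells with tetracycline-inducible G1 APOL1 (clone DC3.25), 26000 cells per well, induced with tetracycline at plating and incubated at 37° C, 5% CO2. Pore activity read on FLIPR as Tl+ influx via fluorescence of AM-ester-loaded thallium-sensitive dye.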
`O=C1NC[C@@H](O)[C@@H]1NC(=O)C(F)(F)Cc1c(-c2ccc(F)cc2)[nH]c2c(F)cc(F)cc12` [Compound 95, 3-[5,7-difluoro-2-(4-fluorophenyl)-1H-indol-3-yl]-2,2-difluoro-N-[(3S,4R)-4-hydroxy-2-oxo-pyrrolidin-3-yl]propanamide] showed a pIC50 of over 6.60.

On to `O=C(CCc1c(-c2ccc(F)cc2)[nH]c2ccc(O)cc12)N[C@H]1CCNC1=O` [Compound 55, 3-[2-(4-fluorophenyl)-5-hydroxy-1H-indol-3-yl]-N-[(3S)-2-oxopyrrolidin-3-yl]propanamide], for which the negative-log IC50 (pIC50) is under 6.00.

Molecule `O=C(CCc1c(-c2ccc(F)cc2)[nH]c2ccc(OCc3ccccc3)cc12)N[C@H]1CCNC1=O` [Compound 54, 3-[5-benzyloxy-2-(4-fluorophenyl)-1H-indol-3-yl]-N-[(3S)-2-oxopyrrolidin-3-yl]propanamide] had a pIC50 of 6.00 to 6.60.

For the molecule `O=C1C[C@H](NC(=O)CCc2c(-c3ccc(F)cc3)[nH]c3c(F)cc(F)cc23)C(=O)N1` [Compound 5], the pIC50 is 6.00 to 6.60.

As for `O=C(CCc1c(-c2ccccc2)[nH]c2ccccc12)N[C@@H]1C(=O)NC[C@H]1O` [Compound 86], the pIC50 is over 6.60.

In the case of `N#Cc1cc(F)cc2c(CCC(=O)N[C@@H]3C(=O)NC[C@H]3O)c(-c3ccc(F)cc3)[nH]c12` [Compound 42], the pIC50 is over 6.60.

Turning to `N#Cc1cc(F)c2[nH]c(-c3ccc(F)cc3)c(CCC(=O)N[C@H]3CCNC3=O)c2c1` [Compound 28], the pIC50 is under 6.00.

The molecule `O=C1C[C@@H](NC(=O)CCc2c(-c3ccc(F)cc3)[nH]c3c(F)cc(F)cc23)C(=O)N1` [Compound 16] gave a negative logarithm of the IC50 (pIC50) of 6.00 to 6.60.

`O=C(CCc1c(-c2ccc(F)cc2)[nH]c2c(F)cc(F)cc12)N[C@H]1CCNC1=O` [Compound 3, 3-[5,7-difluoro-2-(4-fluorophenyl)-1H-indol-3-yl]-N-[(3S)-2-oxopyrrolidin-3-yl]propanamide] gave a negative logarithm of the IC50 (pIC50) of over 6.60.

The molecule `O=C(CCc1c(-c2ccc(Cl)cc2)[nH]c2ccccc12)N[C@@H]1C(=O)NC[C@H]1O` [Compound 128, 3-[2-(4-chlorophenyl)-1H-indol-3-yl]-N-[(3S,4R)-4-hydroxy-2-oxo-pyrrolidin-3-yl]propanamide] gave a pIC50 of over 6.60.

With `O=C(CCc1c(-c2ccc(F)cc2)[nH]c2c(F)cc(Cl)cc12)N[C@@H]1C(=O)NC[C@H]1O` [Compound 30], the pIC50 was over 6.60.

With `O=C(CCc1c(-c2ccc(OC(F)F)cc2)[nH]c2c(F)cc(F)cc12)N[C@@H]1C(=O)NC[C@H]1O` [Compound 102], the pIC50 is over 6.60.

Regarding `Cc1cc(-c2[nH]c3ccccc3c2CCC(=O)N[C@@H]2C(=O)NC[C@H]2O)ccc1F` [Compound 125], the pIC50 was over 6.60.

As to `O=C(CCc1c(-c2ccccc2)[nH]c2cccc(F)c12)N[C@@H]1C(=O)NC[C@H]1O` [Compound 114, 3-(4-fluoro-2-phenyl-1H-indol-3-yl)-N-[(3S,4R)-4-hydroxy-2-oxo-pyrrolidin-3-yl]propanamide], the pIC50 is over 6.60.

`N#Cc1ccc(-c2[nH]c3c(F)cc(F)cc3c2CCC(=O)N[C@H]2CCNC2=O)cc1` [Compound 20, 3-[2-(4-cyanophenyl)-5,7-difluoro-1H-indol-3-yl]-N-[(3S)-2-oxopyrrolidin-3-yl]propanamide] had a negative logarithm of the IC50 (pIC50) of over 6.60.

Take `CC1C[C@H](NC(=O)CCc2c(-c3ccc(F)cc3)[nH]c3c(F)cc(F)cc23)C(=O)N1` (mixture of isomers) [Compound 6]: the negative logarithm of the IC50 (pIC50) is 6.00 to 6.60.

With `O=C(CCc1c(-c2ccc(F)cc2)[nH]c2ccc(C(F)(F)F)cc12)N[C@@H]1C(=O)NC[C@H]1O` [Compound 108, 3-[2-(4-fluorophenyl)-5-(trifluoromethyl)-1H-indol-3-yl]-N-[(3S,4R)-4-hydroxy-2-oxo-pyrrolidin-3-yl]propanamide], the pIC50 is over 6.60.

As to `O=C(CCc1c(-c2ccc(F)cc2)[nH]c2ccc(F)cc12)N[C@@H]1C(=O)NC[C@H]1O` [Compound 46], the pIC50 is over 6.60.

Regarding `O=C(CCc1c(-c2ccc(F)c(F)c2)[nH]c2c(F)cc(F)cc12)N[C@@H]1C(=O)NC[C@H]1O` [Compound 105], the pIC50 was over 6.60.

The molecule `CN(C(=O)CCc1c(-c2ccc(F)cc2)[nH]c2ccc(F)cc12)C1CCNC1=O` (stereo not drawn) [Compound 50] gave a pIC50 of 6.00 to 6.60.

Take `O=C(CCc1c(-c2ccccc2)[nH]c2ccc(Cl)cc12)N[C@@H]1C(=O)NC[C@H]1O` [Compound 44, 3-(5-chloro-2-phenyl-1H-indol-3-yl)-N-[(3S,4R)-4-hydroxy-2-oxo-pyrrolidin-3-yl]propanamide]: the pIC50 was over 6.60.

Turning to `O=C(CCc1c(-c2ccc(F)cc2)[nH]c2ccc(F)cc12)N[C@H]1CCNC1=O` [Compound 47], the negative logarithm of the IC50 (pIC50) is over 6.60.

In turn, `O=C(CCc1c(-c2ccccc2)[nH]c2c(Br)cccc12)N[C@@H]1C(=O)NC[C@H]1O` [Compound 70] showed a pIC50 of over 6.60.

`CC1(NC(=O)CCc2c(-c3ccc(F)cc3)[nH]c3c(F)cc(F)cc23)CCNC1=O` (racemic) [Compound 14]: the pIC50 is 6.00 to 6.60.

As to `N#Cc1ccc(-c2[nH]c3ccccc3c2CCC(=O)N[C@@H]2C(=O)NC[C@H]2O)cc1` [Compound 116, 3-[2-(4-cyanophenyl)-1H-indol-3-yl]-N-[(3S,4R)-4-hydroxy-2-oxo-pyrrolidin-3-yl]propanamide], the pIC50 is over 6.60.

In turn, `O=C(CCc1c(-c2ccc(F)cc2)[nH]c2c(F)cccc12)N[C@H]1CCNC1=O` [Compound 75] gave a pIC50 of over 6.60.

`O=C(CCc1c(-c2ccc(F)cc2)[nH]c2c(F)ccc(F)c12)N[C@H]1CCNC1=O` [Compound 78] gave a pIC50 of under 6.00.

In turn, `O=C(CCc1c(-c2ccccc2)[nH]c2c(F)c(F)ccc12)N[C@@H]1C(=O)NC[C@H]1O` [Compound 59] had a pIC50 of over 6.60.

On to `O=C(CCc1c(-c2ccc(F)cc2)[nH]c2c(F)cc(C(F)(F)F)cc12)N[C@@H]1C(=O)NC[C@H]1O` [Compound 101, 3-[7-fluoro-2-(4-fluorophenyl)-5-(trifluoromethyl)-1H-indol-3-yl]-N-[(3S,4R)-4-hydroxy-2-oxo-pyrrolidin-3-yl]propanamide], for which the pIC50 was over 6.60.

On to `COc1ccc(-c2[nH]c3ccccc3c2CCC(=O)N[C@@H]2C(=O)NC[C@H]2O)cc1` [Compound 121], for which the pIC50 is over 6.60.

The molecule `O=C(CCc1c(-c2ccccc2)[nH]c2c(C(F)(F)F)cccc12)N[C@@H]1C(=O)NC[C@H]1O` [Compound 112, N-[(3S,4R)-4-hydroxy-2-oxo-pyrrolidin-3-yl]-3-[2-phenyl-7-(trifluoromethyl)-1H-indol-3-yl]propanamide] showed a pIC50 of 6.00 to 6.60.

Molecule `O=C(CCc1c(-c2ccc(OC(F)F)cc2)[nH]c2c(F)cc(F)cc12)N[C@H]1CCNC1=O` [Compound 21] had a pIC50 of over 6.60.

`O=C(CCc1c(-c2ccc(F)cc2)[nH]c2c(F)c(F)ccc12)N[C@@H]1C(=O)NC[C@H]1O` [Compound 58]: the pIC50 is over 6.60.
